Experimental data: US7919488B2, “Therapeutic compounds” (Pfizer Inc., priority 2006, dated 2011)
Where a name gives a salt, the structure may show the parent alone.

Experiments:
Type in all cases: biochemical
[1] = molecular target: T1, CYP3A4 (Homo sapiens, UniProt P08684); experiment: IC50 against CYP3A4 by inhibition of midazolam metabolism in human liver microsomes; settings: 0.1 mg/mL human liver microsomes, 2 μM midazolam, 1 mM NADPH, 1-hydroxymidazolam production, eight minutes; read-out: IC50, μM (HLM, midazolam)
T1 construct: 0.1 mg/mL human liver microsomes; from tissue; host or cells: human liver microsomes
Procedure: 3. Determination of IC50 Against CYP3A4 by Measurement of Inhibition of Midazolam Metabolism
This assay was performed using a standard 96 well plate design. […] The incubation substrate mix contains 2 μM midazolam, 0.1 mg/mL human liver microsomes, 1 mM NADPH, and potassium phosphate buffer (100 mM, pH 7.4). Quantitation of metabolite peak area ratio against internal standard is determined by LC-MS/MS analysis. The production of 1-hydroxymidazolam from midazolam metabolism is determined after incubation for eight minutes by comparison to a standard curve generated for the metabolite.
(§1) Samples were analyzed in the MRM mode using a Sciex API 3000 mass spectrometer (Applied Biosystems, Foster City, Calif.) with a Paradigm MS4 binary pump (Michrom BioResources Inc., Auburn, Calif.) and a LEAP CTC PAL autosampler (LEAP Technologies, Carrboro, N.C.). A Phenomenex Synergi, 4μ, Polar-RP, 10×2.0 mm column (Phenomenex, Torrance, Calif.) was used for separation with a mobile phase composition of: 0.1% formic acid in water (A) and: 0.1% formic acid in methanol (B). The following gradient was used: […]
(§2) The sample injection volume was 10 μL and flow was split post-column with 0.4 mL/min going to the mass spectrometer. Analysis was performed using the following API 3000 mass spectrometer settings: […]

[2] = molecular target: T1, CYP3A4; experiment: IC50 against CYP3A4 by inhibition of testosterone metabolism in human liver microsomes; settings: 0.1 mg/mL human liver microsomes, 25 μM testosterone, 1 mM NADPH, 6-β-OH-testosterone production, eight minutes; read-out: IC50, μM (HLM, testosterone)
Procedure: 2. Determination of IC50 Against CYP3A4 by Measurement of Inhibition of Testosterone Metabolism
This assay was performed using a standard 96 well plate design. […] Quantitation of metabolite peak area ratio against an internal standard is determined by LC-MS/MS analysis. The production of 6-β-OH-testosterone from testosterone metabolism is determined after incubation for eight minutes by comparison to a standard curve generated for the metabolite
as §1, §2

[3] = molecular target: T2, recombinant CYP3A4-b5 enzyme (Baculosomes®) (Homo sapiens, UniProt P08684); experiment: Kiapp against recombinant CYP3A4 enzyme (Baculosomes), BFC substrate; settings: recombinant CYP3A4-b5 (Invitrogen), 5 uM BFC, 200 uM NADPH, pre-incubation at least 30 minutes, pH 7.0, room temperature
T2 construct: purchased Invitrogen (Carlsbad, Calif.)
Procedure: 1. Determination of Compound Kiapp
A determination of the Kiapp of the compounds of the invention against recombinant CYP3A4 enzyme was performed as follows. The assay was performed in a 100 mM sodium phosphate buffer pH 7.0, 5 mM TCEP and containing 2% dimethylformamide (final concentration) upon addition of substrate and inhibitor. A typical reaction for the determination of Kiapp values was carried at room temperature in a solid black Costar u-bottom 96-well polypropylene plate. […] When pre-incubation was completed (˜30 min), the reaction was initiated by adding NADPH (200 uM, final concentration), and 7-benzyloxy-4-(trifluoromethyl)-coumarin (BFC) (5 uM, final concentration). The oxidation of the coumarin substrate was recorded by a 96-well plate reader POLARstar (BMG LABTECH, Offenburg, Germany).
The initial reaction velocities were measured during the first 5 min of the reaction when the release of the fluorescent product is linear with time, in the absence and in the presence of various concentrations of inhibitors.
The fluorescent substrate BFC was purchased from Sigma (St Louis, Mo.). Two commercial sources of recombinant enzymes were used in this study: recombinant CYP3A4-b5 enzyme (Baculosomes®) was purchased from Invitrogen (Carlsbad, Calif.) and the recombinant CYP3A4+b5 enzyme (Supersomes®) was purchased from BD Biosciences (Woburn, Mass.).

T1 sequence (P08684 whole entry): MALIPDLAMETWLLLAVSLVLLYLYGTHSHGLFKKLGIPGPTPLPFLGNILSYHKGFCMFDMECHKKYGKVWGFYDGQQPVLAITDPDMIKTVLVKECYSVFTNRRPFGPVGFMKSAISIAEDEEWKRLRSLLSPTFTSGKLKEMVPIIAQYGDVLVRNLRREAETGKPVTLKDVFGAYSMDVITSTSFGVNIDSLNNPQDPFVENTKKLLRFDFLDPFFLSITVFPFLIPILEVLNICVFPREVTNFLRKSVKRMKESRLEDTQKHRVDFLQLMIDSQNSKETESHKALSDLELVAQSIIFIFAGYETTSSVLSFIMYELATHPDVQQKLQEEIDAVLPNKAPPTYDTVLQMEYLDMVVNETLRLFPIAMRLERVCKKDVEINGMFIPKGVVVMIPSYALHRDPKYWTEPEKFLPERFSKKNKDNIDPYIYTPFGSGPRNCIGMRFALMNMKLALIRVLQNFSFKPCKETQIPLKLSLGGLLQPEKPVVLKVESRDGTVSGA
T2 sequence (P08684 whole entry): as above

Compound | IC50 [1] [µM] | IC50 [2] [µM] | Ki [3] [µM]
CC(C)NC(=O)Cn1nc(-c2ccncc2)cc1Cc1ccc(F)cc1 [Example 58, 2-[5-(4-fluorobenzyl)-3-pyridin-4-yl-1H-pyrazol-1-yl]-N-isopropylacetamide] | 0.043 | 0.027 | 0.103
CN(C)C(=O)c1noc(Cn2nc(-c3ccncc3)cc2Cc2ccc(F)cc2)n1 [Example 27, 5-{[5-(4-fluorobenzyl)-3-pyridin-4-yl-1H-pyrazol-1-yl]methyl}-N,N-dimethyl-1,2,4-oxadiazole-3-carboxamide (maleic acid salt)] | 0.086 | 0.021 | 0.12
CC(O)Cn1nc(-c2ccncc2)cc1Cc1ccc(F)cc1 (stereo not drawn) [Example 52, 1-[5-(4-fluorobenzyl)-3-pyridin-4-yl-1H-pyrazol-1-yl]propan-2-ol] | 0.071 | 0.056 | 0.175
CS(=O)(=O)N1CC(n2nc(-c3ccncc3)cc2Cc2ccc(F)cc2)C1 [Example 23, 4-{5-(4-fluorobenzyl)-1-[1-(methylsulfonyl)azetidin-3-yl]-1H-pyrazol-3-yl}pyridine] | 0.375 | 0.218 | 0.159
CCS(=O)(=O)NC1CCN(C(=O)Cn2nc(-c3ccncc3)cc2Cc2ccc(F)cc2)CC1 [Example 102, N-(1-(2-[5-(4-fluorobenzyl)-3-pyridin-4-yl-1H-pyrazol-1-yl]acetyl}piperidin-4-yl)ethanesulfonamide] | 0.012 | 0.023 | 0.107
OCCCn1nc(-c2ccncc2)cc1Cc1ccc(F)cc1 [Example 32, 3-(5-(4-fluorobenzyl)-3-(pyridin-4-yl)-1H-pyrazol-1-yl)propan-1-ol] | 0.061 | 0.015 | 0.12
C[C@H](O)CNC(=O)Cn1nc(-c2ccncc2)cc1Cc1ccc(F)cc1 [Example 64, 2-[5-(4-fluorobenzyl)-3-pyridin-4-yl-1H-pyrazol-1-yl]-N-[(2S)-2-hydroxypropyl]acetamide] | 0.028 | 0.032 | 0.185
Fc1ccc(Cc2cc(-c3ccncc3)nn2Cc2nc(N3CCOCC3)no2)cc1 [Example 70, 4-(5-{[5-(4-fluorobenzyl)-3-pyridin-4-yl-1H-pyrazol-1-yl]methyl}-1,2,4-oxadiazol-3-yl)morpholine] | 0.019 | < 0.012 | 0.0238
O=C(CCN1CCOCC1)N1CC(n2nc(-c3ccncc3)cc2Cc2ccc(F)cc2)C1 [Example 67, 4-(3-{3-[5-(4-fluorobenzyl)-3-pyridin-4-yl-1H-pyrazol-1-yl]azetidin-1-yl}-3-oxopropyl)morpholine] | 0.042 | 0.052 | 0.074
N[C@@H]1CCN(C(=O)Cn2nc(-c3ccncc3)cc2Cc2ccc(F)cc2)C1 [Example 65, (3R)-1-{[5-(4-fluorobenzyl)-3-pyridin-4-yl-1H-pyrazol-1-yl]acetyl}pyrrolidin-3-amine] | 0.059 | 0.134 | 0.673
CC(Cc1cnccn1)NC(=O)Cn1nc(-c2ccncc2)cc1Cc1ccc(F)cc1 (stereo not drawn) [Example 82, 2-[5-(4-fluorobenzyl)-3-pyridin-4-yl-1H-pyrazol-1-yl]-N-(1-methyl-2-pyrazin-2-ylethyl)acetamide] | 0.023 | 0.025 | 0.109
Cc1cc(CNC(=O)Cn2nc(-c3ccncc3)cc2Cc2ccc(F)cc2)on1 [Example 86, 2-[5-(4-fluorobenzyl)-3-pyridin-4-yl-1H-pyrazol-1-yl]-N-[(3-methylisoxazol-5-yl)methyl]acetamide] | 0.018 | 0.013 | 0.0571
O=C(Cn1nc(-c2ccncc2)cc1Cc1ccc(F)cc1)N1CCC(N2CCCC2=O)CC1 [Example 5, 1(1-{[5-(4-fluorobenzyl)-3-pyridin-4-yl-1H-pyrazol-1-yl]acetyl}piperidin-4-yl)pyrrolidin-2-one] | 0.01 | 0.033 | 0.085
C[C@@H](O)CNC(=O)Cn1nc(-c2ccncc2)cc1Cc1ccc(F)cc1 [Example 63, 2-[5-(4-fluorobenzyl)-3-pyridin-4-yl-1H-pyrazol-1-yl]-N-[(2R)-2-hydroxypropyl]acetamide] | 0.04 | 0.048 | 0.178
O=C(Cn1nc(-c2ccncc2)cc1Cc1ccc(F)cc1)NCCN1CCOCC1 [Example 55, 2-[5-(4-fluorobenzyl)-3-pyridin-4-yl-1H-pyrazol-1-yl]-N-(2-morpholin-4-ylethyl)acetamide] | 0.044 | < 0.012 | 0.101
CCCN(C)C1(C(N)=O)CCN(C(=O)Cn2nc(-c3ccncc3)cc2Cc2ccc(F)cc2)CC1 [Example 92, 1-{[5-(4-fluorobenzyl)-3-pyridin-4-yl-1H-pyrazol-1-yl]acetyl}-4-[methyl(propyl)amino] piperidine-4-carboxamide] | 0.007 | 0.015 | 0.0241
O=C(Cn1nc(-c2c[nH]cn2)cc1Cc1ccc(F)cc1)N1CCC[C@@H](O)C1 [Example 40, (3R)-1-{[5-(4-fluorobenzyl)-3-(1H-imidazol-4-yl)-1H-pyrazol-1-yl]acetyl}piperidin-3-ol] | 0.446 | > 0.75 | > 1
Cc1noc(CCNC(=O)Cn2nc(-c3ccncc3)cc2Cc2ccc(F)cc2)n1 [Example 91, 2-[5-(4-fluorobenzyl)-3-pyridin-4-yl-1H-pyrazol-1-yl]-N-[2-(3-methyl-1,2,4-oxadiazol-5-yl)ethyl]acetamide] | 0.019 | 0.018 | 0.112
CC(NC(=O)Cn1nc(-c2ccncc2)cc1Cc1ccc(F)cc1)c1cnn(C)c1 (stereo not drawn) [Example 85, 2-[5-(4-fluorobenzyl)-3-pyridin-4-yl-1H-pyrazol-1-yl]-N-[1-(1-methyl-1H-pyrazol-4-yl)ethyl]acetamide] | 0.031 | 0.028 | 0.0843
CCNC(=O)N(C)C1CCN(C(=O)Cn2nc(-c3ccncc3)cc2Cc2ccc(F)cc2)CC1 [Example 115, 3-ethyl-1-(1-{[5-(4-fluorobenzyl)-3-pyridin-4-yl-1H-pyrazol-1-yl]acetyl}piperidin-4-yl)-1-methylurea] | 0.004 | 0.015 | 0.0338
NC(=O)c1noc(Cn2nc(-c3ccncc3)cc2Cc2ccc(F)cc2)n1 [Example 69, 5-{[5-(4-fluorobenzyl)-3-pyridin-4-yl-1H-pyrazol-1-yl]methyl}-1,2,4-oxadiazole-3-carboxamide] | 0.0555 | 0.0203 | 0.18
O=C(Cn1nc(-c2ccncc2)cc1Cc1ccc(F)cc1)N[C@H]1CC[C@H](O)CC1 [Example 96, 2-[5-(4-fluorobenzyl)-3-pyridin-4-yl-1H-pyrazol-1-yl]-N-(trans-4-hydroxycyclohexyl)-acetamide] | < 0.013 | < 0.0225 | 0.0227
O=C(Cn1nc(-c2ccncc2)cc1Cc1ccc(F)cc1)N1CCC[C@@H]1CO [Example 75, [(2R)-1-{[5-(4-fluorobenzyl)-3-pyridin-4-yl-1H-pyrazol-1-yl]acetyl}pyrrolidin-2-yl]methanol] | 0.0175 | 0.0215 | 0.118
NC1CCN(C(=O)Cn2nc(-c3ccncc3)cc2Cc2ccc(F)cc2)CC1 [Example 8, 1-{[5-(4-fluorobenzyl)-3-pyridin-4-yl-1H-pyrazol-1-yl]acetyl}piperidin-4-amine] | 0.114 | 0.273 | 0.547
COCCn1nc(-c2ccncc2)cc1Cc1ccc(F)cc1 [Example 31, 4-(5-(4-fluorobenzyl)-1-(2-methoxyethyl)-1H-pyrazol-3-yl)pyridine] | 0.0466 | 0.0225 | 0.105
